Data from patent US20110046190A1, “COMBINATIONS COMPRISING A SELECTIVE CYCLOOXYGENASE-2 INHIBITOR” (priority 2001, published 2011).
Like-named read-outs stand apart in the source and are kept apart here.

What was measured:
intestinal polyps = assay: mouse model of adenomatous polyposis, prevention and treatment of intestinal polyps; assay type: in vivo; conditions: COX 125 ppm in feed ad libitum
Description: (§1) 5-methyl-2-(2′-chloro-6′-fluoro-anilino)-phenyl acetic acid (“COX”) and (+)-discodermolide (“disco”) are tested as single agents and together as combination therapy in a mouse model of adenomatous polyposis for the prevention and treatment of intestinal polyps. (+)-Discodermolide is administered once intravenously to the mice at 15 mg/kg as a solution in 16.7% Chremophor EI, 8.3% ethanol, and 75% D5W. COX is administered in the feed mix at a concentration of 125 ppm.
(§2) 5-methyl-2-(2′-chloro-6′-fluoro-anilino)-phenyl acetic acid (“COX”) and (R)-4-(4-((1-phenylethyl)amino)-7H-pyrrolo(2,3-d)pyrimidin-6-yl)-phenol (“EGFR”) are tested as single agents and together as combination therapy in a mouse model of adenomatous polyposis for the prevention and treatment of intestinal polyps. EGFR is administered to the mice orally at 50 mg/kg, as a suspension in 0.5% carboxymethylcellulose, b.i.d., 5 days a week for three weeks. COX is administered in the feed mix at a concentration of 125 ppm.
(§3) 5-methyl-2-(2′-chloro-6′-fluoro-anilino)-phenyl acetic acid (“COX”) and 1-(4-chloroanilino)-4-(4-pyridylmethyl)phthalazine (“VEGFR”) are tested as single agents and together as combination therapy in a mouse model of adenomatous polyposis for the prevention and treatment of intestinal polyps. VEGFR is administered to the mice orally at 100 mg/kg, 5 times a week for three weeks. COX is administered in the feed mix at a concentration of 125 ppm.

[1] = COX 125 ppm in feed ad libitum
Description: as §1, §2, §3

[2] = tested on: DU 145 prostate tumor cell line; assay: mouse model of prostate cancer, efficacy against established tumors; assay type: in vivo; conditions: Example 4; DU 145 prostate tumors in mice; COX 125 ppm in feed; VEGF 100 mg/kg p.o. q.d. 5x/week for three weeks
Description: (§4) 5-methyl-2-(2′-chloro-6′-fluoro-anilino)-phenyl acetic acid (“COX”) and 1-(4-chloroanilino)-4-(4-pyridylmethyl)phthalazine (“VEGFR”) are tested as single agents and together as combination therapy in a mouse model of prostrate cancer (orthoscopically implanted DU 145 prostate tumor cell line) for efficacy against established tumors. VEGFR is administered to the mice orally at 100 mg/kg, 5 times a week for three weeks, as a suspension in 0.5% microcrystalline cellulose, 0.1% Tween 80 in water. COX is administered in the feed mix at a concentration of 125 ppm.

[3] = Example 4; DU 145 prostate tumors in mice; COX 125 ppm in feed; VEGF 100 mg/kg p.o. q.d. 5x/week for three weeks
Description: as §4

[4] = tested on: tumor vascular permeability; conditions: studies in humans; cited from earlier work
[5] = Example 1, first experiment, disco 15 mg/kg i.v. once
[6] = Example 1, second (duplicate) experiment, disco 15 mg/kg i.v. once
[7] = Example 2, first experiment, EGFR 50 mg/kg p.o. b.i.d. 5x/week for three weeks
[8] = Example 2, second (duplicate) experiment, EGFR 50 mg/kg p.o. b.i.d. 5x/week for three weeks
[9] = Example 3, first experiment, VEGF 100 mg/kg p.o. 5x/week for three weeks
[10] = Example 3, second (duplicate) experiment, VEGF 100 mg/kg p.o. 5x/week for three weeks

| Compound | % T/C (polyps) (intestinal polyps; [5]) [%] | Mean Intestinal Polyp Count (# ± SEM) (intestinal polyps; [5]) | % T/C (polyps) (intestinal polyps; [6]) [%] | Mean Intestinal Polyp Count (# ± SEM) (intestinal polyps; [6]) | % T/C (polyps) (intestinal polyps; [7]) [%] | Mean Intestinal Polyp Count (# ± SEM) (intestinal polyps; [7]) | % T/C (polyps) (intestinal polyps; [8]) [%] | Mean Intestinal Polyp Count (# ± SEM) (intestinal polyps; [8]) | % T/C (polyps) (intestinal polyps; [9]) [%] | Mean Intestinal Polyp Count (# ± SEM) (intestinal polyps; [9]) | % T/C (polyps) (intestinal polyps; [10]) [%] | Mean Intestinal Polyp Count (# ± SEM) (intestinal polyps; [10]) | Dead/Total [1, 5] | Dead/Total [1, 6] | Dead/Total [1, 7] | Dead/Total [1, 8] | Dead/Total [1, 9] | Dead/Total [1, 10] | % T/C (tumors) [2] [%] | Mean Tumor Weight (mg ± SEM) [2] [mg] | further results |
| --- | --- | --- | --- | --- | --- | --- | --- | --- | --- | --- | --- | --- | --- | --- | --- | --- | --- | --- | --- | --- | --- |
| Cc1ccc(Nc2c(F)cccc2Cl)c(CC(=O)O)c1 [COX, 5-methyl-2-(2′-chloro-6′-fluoro-anilino)-phenyl acetic acid] | 56 | 15 ± 0.4 # | 57 | 13 ± 0.2 # | 43 | 9 ± 0.4 # | 36 | 12 ± 0.9 # | 44 | 12 ± 0.22 # | 44 | 13 ± 0.18 # | 0/7 | 0/7 | 0/7 | 0/7 | 0/7 | 0/7 | 80 | 343 ± 52 | Dead/Total [3]: 1/12 |
| C[C@@H](Nc1ncnc2[nH]c(-c3ccc(O)cc3)cc12)c1ccccc1 [EGFR, (R)-4-(4-((1-phenylethyl)amino)-7H-pyrrolo(2,3-d)pyrimidin-6-yl)-phenol] | – | – | – | – | 37 | 8 ± 0.2 # | 27 | 9 ± 0.3 # | – | – | – | – | – | – | 0/7 | 0/7 | – | – | – | – | – |
| Clc1ccc(Nc2nnc(Cc3ccncc3)c3ccccc23)cc1 [VEGF, 1-(4-chloroanilino)-4-(4-pyridylmethyl)phthalazine] | – | – | – | – | – | – | – | – | 57 | 15 ± 0.48 # | 60 | 17 ± 0.19 # | – | – | – | – | 0/6 | 0/7 | 57 | 243 ± 37 | Dead/Total [3]: 1/12; tolerability [4]: well tolerated; tumor vascular permeability [4]: reduce tumor vascular permeability |
| (+)-discodermolide | 56 | 15 ± 0.2 # | 64 | 15 ± 0.22 # | – | – | – | – | – | – | – | – | 0/7 | 0/7 | – | – | – | – | – | – | % Body Wt. Change [1, 5]: +0.9 ± 0.1%; % Body Wt. Change [1, 6]: +4.0 ± 0.12% |
